Values joined by “and” are separate entries in the source; they are usually repeats but may differ in a detail not shown here. Equal values may be shown once. Toxic doses and inconclusive results are not listed.
System: L1210 leukemia ip in BDF1 mice, survival T/C
Assay: NCI In Vivo Anticancer Drug Screen. Data for tumor model L1210 Leukemia (intraperitoneal) in B6D2F1 (BDF1) mice
Settings: endpoint: mean survival time, higher = longer survival
In short: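 Read-out is survival time, reported as the treated-group measurement over the vehicle-control measurement.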

[1] = dose: 100.0 mg/kg/injection, schedule: Q04DX003 (ip), vehicle: saline
[2] = dose: 200.0 mg/kg/injection, schedule: Q04DX003 (ip), vehicle: saline
[3] = dose: 400.0 mg/kg/injection, schedule: Q04DX003 (ip), vehicle: saline
[4] = dose: 100.0 mg/kg/injection, schedule: Q01DX009 (ip), vehicle: Klucel (hydroxypropylcellulose) (HPC)
[5] = dose: 100.0 mg/kg/injection, schedule: Q04DX003 (ip), vehicle: Klucel (hydroxypropylcellulose) (HPC)
[6] = dose: 200.0 mg/kg/injection, schedule: Q01DX009 (ip), vehicle: Klucel (hydroxypropylcellulose) (HPC)
[7] = dose: 200.0 mg/kg/injection, schedule: Q04DX003 (ip), vehicle: Klucel (hydroxypropylcellulose) (HPC)
[8] = dose: 400.0 mg/kg/injection, schedule: Q01DX009 (ip), vehicle: Klucel (hydroxypropylcellulose) (HPC)
[9] = dose: 400.0 mg/kg/injection, schedule: Q04DX003 (ip), vehicle: Klucel (hydroxypropylcellulose) (HPC)
[10] = dose: 100.0 mg/kg/injection, schedule: Q01DX009 (ip), vehicle: saline with Tween-80
[11] = dose: 200.0 mg/kg/injection, schedule: Q01DX009 (ip), vehicle: saline with Tween-80
[12] = dose: 50.0 mg/kg/injection, schedule: Q01DX009 (ip), vehicle: saline with Tween-80

For `Nc1ccccc1CSc1nc2nc[nH]c2c(=O)[nH]1`, the T/C (dose: 5.0 mg/kg/injection, schedule: Q01DX009 (ip), vehicle: Klucel (hydroxypropylcellulose) (HPC)) was 99 % of control, the T/C (dose: 10.0 mg/kg/injection, schedule: Q01DX009 (ip), vehicle: Klucel (hydroxypropylcellulose) (HPC)) was 97 % of control and the T/C (dose: 20.0 mg/kg/injection, schedule: Q01DX009 (ip), vehicle: Klucel (hydroxypropylcellulose) (HPC)) was 103 % of control.
In the case of `O=S(=O)(c1ccccc1)C1CC(Cl)C1` (stereo unspecified), the T/C [1] is reported as 109 % of control, the T/C [2] is reported as 98 % of control and the T/C [3] is reported as 97 % of control.
With `CC(C)(C)CC(C)(C)c1ccc(OCCOc2ccc([N+](=O)[O-])cc2N)cc1` the T/C [4] was 97 % of control, the T/C [5] was 98 % of control and the T/C [6] was 97 % of control. The T/C [7] was 93 % of control, the T/C [8] was 101 % of control and the T/C [9] was 86 % of control.
`COc1cc(NC(C)CCCN2C(=O)c3ccccc3C2=O)c2nc(-c3ccc(Cl)cc3)ccc2c1` (stereo unspecified) was tested, and the T/C (dose: 50.0 mg/kg/injection, schedule: Q04DX003 (ip), vehicle: saline) was 90 % of control, the T/C (dose: 100.0 mg/kg/injection, schedule: Q01DX009 (ip), vehicle: other) was 94 % of control and the T/C [1] was 92 % of control. For the same molecule, the T/C (dose: 200.0 mg/kg/injection, schedule: Q01DX009 (ip), vehicle: other) was 94 % of control, the T/C [2] was 90 % of control and the T/C (dose: 400.0 mg/kg/injection, schedule: Q01DX009 (ip), vehicle: other) was 101 % of control. The T/C [3] was 87 % of control.
In the case of `Nc1nc(N)c2[nH]cnc2n1` (tested in a mixture with another compound), the T/C (dose: 100.0 mg/kg/injection, schedule: Q01DX001 (ip), vehicle: carboxymethylcellulose (CMC)) is reported as 93 % of control, the T/C (dose: 200.0 mg/kg/injection, schedule: Q01DX001 (ip), vehicle: carboxymethylcellulose (CMC)) is reported as 89 % of control and the T/C (dose: 400.0 mg/kg/injection, schedule: Q01DX001 (ip), vehicle: carboxymethylcellulose (CMC)) is reported as 94 % of control.
With `CC(C)OP(=O)(OC(C)C)C1=C(P(=O)(OC(C)C)OC(C)C)C(F)(F)C(F)(F)C1(F)F` the T/C (dose: 9.5 mg/kg/injection, schedule: Q01DX001 (ip), vehicle: other) was 106 % of control, the T/C (dose: 19.0 mg/kg/injection, schedule: Q01DX001 (ip), vehicle: other) was 95 % of control and the T/C (dose: 38.0 mg/kg/injection, schedule: Q01DX001 (ip), vehicle: other) was 89 % of control.
`O=CC(NC(=O)N(CCCl)N=O)C(O)C(O)C(O)CO` (stereo unspecified) was tested, and the T/C (dose: 2.0 mg/kg/injection, schedule: Q01DX009 (ip), vehicle: carboxymethylcellulose (CMC)) was 169 % of control, the T/C (dose: 2.0 mg/kg/injection, schedule: Q01DX009 (ip), vehicle: other) was 163 % of control and the T/C (dose: 2.0 mg/kg/injection, schedule: Q01DX009 (ip), vehicle: saline) was 172 % of control. The T/C (dose: 3.0 mg/kg/injection, schedule: Q01DX009 (ip), vehicle: carboxymethylcellulose (CMC)) was 186 % of control, the T/C (dose: 3.0 mg/kg/injection, schedule: Q01DX009 (ip), vehicle: other) was 180 % of control and the T/C (dose: 3.0 mg/kg/injection, schedule: Q01DX009 (ip), vehicle: saline) was 259 % of control. The T/C (dose: 4.4 mg/kg/injection, schedule: Q01DX009 (ip), vehicle: carboxymethylcellulose (CMC)) was 204 % of control, the T/C (dose: 4.4 mg/kg/injection, schedule: Q01DX009 (ip), vehicle: other) was 290 % of control and the T/C (dose: 4.4 mg/kg/injection, schedule: Q01DX009 (ip), vehicle: saline) was 308 % of control. The T/C (dose: 4.5 mg/kg/injection, schedule: Q01DX009 (ip), vehicle: saline) was 154 % of control, the T/C (dose: 6.0 mg/kg/injection, schedule: Q01DX001 (ip), vehicle: carboxymethylcellulose (CMC)) was 152 % of control and the T/C (dose: 6.0 mg/kg/injection, schedule: Q01DX001 (ip), vehicle: other) was 154 % of control. For the same molecule, the T/C (dose: 6.7 mg/kg/injection, schedule: Q01DX009 (ip), vehicle: carboxymethylcellulose (CMC)) was 318 % of control, the T/C (dose: 6.7 mg/kg/injection, schedule: Q01DX009 (ip), vehicle: other) was 151 % of control and the T/C (dose: 6.7 mg/kg/injection, schedule: Q01DX009 (ip), vehicle: saline) was 471 % of control. For the same molecule, the T/C (dose: 6.8 mg/kg/injection, schedule: Q01DX009 (ip), vehicle: saline) was 207 % of control, the T/C (dose: 9.0 mg/kg/injection, schedule: Q01DX001 (ip), vehicle: carboxymethylcellulose (CMC)) was 208 % of control and 213 % of control and the T/C (dose: 9.0 mg/kg/injection, schedule: Q01DX001 (ip), vehicle: other) was 155 % of control. For the same molecule, the T/C (dose: 9.0 mg/kg/injection, schedule: Q01DX001 (ip), vehicle: saline) was 336 % of control, the T/C (dose: 10.0 mg/kg/injection, schedule: Q01DX009 (ip), vehicle: carboxymethylcellulose (CMC)) was 281 % of control and the T/C (dose: 10.0 mg/kg/injection, schedule: Q01DX009 (ip), vehicle: other) was 107 % of control. For the same molecule, the T/C (dose: 10.0 mg/kg/injection, schedule: Q01DX009 (ip), vehicle: saline) was 152 % of control and 243 % of control, the T/C (dose: 13.0 mg/kg/injection, schedule: Q01DX001 (ip), vehicle: carboxymethylcellulose (CMC)) was 273 % of control and 302 % of control and the T/C (dose: 13.0 mg/kg/injection, schedule: Q01DX001 (ip), vehicle: other) was 272 % of control. For the same molecule, the T/C (dose: 13.0 mg/kg/injection, schedule: Q01DX001 (ip), vehicle: saline) was 211 % of control and 424 % of control, the T/C (dose: 18.0 mg/kg/injection, schedule: Q01DX001 (ip), vehicle: saline) was 505 % of control and the T/C (dose: 20.0 mg/kg/injection, schedule: Q01DX001 (ip), vehicle: carboxymethylcellulose (CMC)) was 455 % of control and 531 % of control. For the same molecule, the T/C (dose: 20.0 mg/kg/injection, schedule: Q01DX001 (ip), vehicle: other) was 575 % of control, the T/C (dose: 20.0 mg/kg/injection, schedule: Q01DX001 (ip), vehicle: saline) was 296 % of control and 486 % of control and the T/C (dose: 26.0 mg/kg/injection, schedule: Q01DX001 (ip), vehicle: saline) was 505 % of control. For the same molecule, the T/C (dose: 30.0 mg/kg/injection, schedule: Q01DX001 (ip), vehicle: carboxymethylcellulose (CMC)) was 282 % of control and 537 % of control, the T/C (dose: 30.0 mg/kg/injection, schedule: Q01DX001 (ip), vehicle: other) was 506 % of control and the T/C (dose: 30.0 mg/kg/injection, schedule: Q01DX001 (ip), vehicle: saline) was 284 % of control and 617 % of control. The T/C (dose: 44.0 mg/kg/injection, schedule: Q01DX001 (ip), vehicle: carboxymethylcellulose (CMC)) was 162 % of control, the T/C (dose: 45.0 mg/kg/injection, schedule: Q01DX001 (ip), vehicle: carboxymethylcellulose (CMC)) was 266 % of control and the T/C (dose: 45.0 mg/kg/injection, schedule: Q01DX001 (ip), vehicle: other) was 153 % of control.
For `CCOC(=O)c1c(Cl)c(Cl)c(Cl)c(Cl)c1C(=O)OCC`, the T/C [4] was 105 % of control, the T/C [10] was 101 % of control and the T/C [5] was 90 % of control. The T/C (dose: 100.0 mg/kg/injection, schedule: Q04DX003 (ip), vehicle: saline with Tween-80) was 100 % of control, the T/C [6] was 104 % of control and the T/C [11] was 90 % of control. For the same molecule, the T/C [7] was 95 % of control, the T/C (dose: 200.0 mg/kg/injection, schedule: Q04DX003 (ip), vehicle: saline with Tween-80) was 104 % of control and the T/C [8] was 100 % of control. For the same molecule, the T/C (dose: 400.0 mg/kg/injection, schedule: Q01DX009 (ip), vehicle: saline with Tween-80) was 93 % of control, the T/C [9] was 105 % of control and the T/C (dose: 400.0 mg/kg/injection, schedule: Q04DX003 (ip), vehicle: saline with Tween-80) was 102 % of control.
In the case of `Cc1ccccc1OCC(=O)O`, the T/C [12] is reported as 107 % of control, the T/C (dose: 50.0 mg/kg/injection, schedule: Q01DX009 (ip), vehicle: saline) is reported as 107 % of control and the T/C [10] is reported as 98 % of control. For the same molecule, the T/C (dose: 100.0 mg/kg/injection, schedule: Q01DX009 (ip), vehicle: saline) was 98 % of control, the T/C (dose: 100.0 mg/kg/injection, schedule: Q04DX003 (ip), vehicle: gum acacia) was 98 % of control and the T/C [11] was 98 % of control. The T/C (dose: 200.0 mg/kg/injection, schedule: Q01DX009 (ip), vehicle: saline) was 98 % of control, the T/C (dose: 200.0 mg/kg/injection, schedule: Q04DX003 (ip), vehicle: gum acacia) was 94 % of control and the T/C (dose: 400.0 mg/kg/injection, schedule: Q04DX003 (ip), vehicle: gum acacia) was 93 % of control.
With `CCOC(=O)C(C)C1=CCCc2c(C)ccc(C)c21` (stereo unspecified) the T/C [4] was 91 % of control, the T/C [5] was 98 % of control and the T/C [6] was 94 % of control. The T/C [7] was 97 % of control, the T/C [8] was 94 % of control and the T/C [9] was 101 % of control.
`Nc1nc2nc3c(nc2c(=O)[nH]1)CN(c1ccc(C(=O)O)cc1)C3=O` was tested, and the T/C (dose: 12.5 mg/kg/injection, schedule: Q01DX009 (ip), vehicle: saline with Tween-80) was 90 % of control, the T/C (dose: 25.0 mg/kg/injection, schedule: Q01DX009 (ip), vehicle: saline with Tween-80) was 94 % of control and the T/C [12] was 87 % of control.

From PubChem BioAssay AID248 (DTP/NCI, 2004)
